Data on four compounds can be found in article PMC10319141, “Imidazoquinolines with improved pharmacokinetic properties induce a high IFNα to TNFα ratio in vitro and in vivo” (Frontiers in Immunology, 2023).

The structures appear in SMILES notation.

Experiment [1] has as its system TNFα and IFNα in peripheral plasma. Nature of the experiment: Cytokine AUC in peripheral plasma after activity-adjusted s.c. doses (Figure 5C, Table 2 bottom). Format: in vivo, C57BL/6 mice. The note with it: for IFNα AUC / TNFα AUC: 8 h period; for IFNα AUC / TNFα AUC / INFα AUC / TNFα AUC: doses adjusted to activity (bottom section); for dose ratio, times the molar dose of RSQ leading to comparable amounts of IFNα / dose ratio, times the molar dose of RSQ necessary to induce similar levels of TNFα: comparison of AUC, s.c. The protocol:
Cytokine concentrations in samples were quantified either by ELISA (hTNFα, R&D Systems; hIFNα, Mabtech) or cytometric bead arrays (CBA, LegendPlex mouse anti-virus response panel, BioLegend) according to the manufacturer’s instructions. CBAs were acquired on a ZE5 Cell Analyzer (Bio-Rad) and analyzed using the LegendPlex Software Suite (Qognit/BioLegend). Absorbance of ELISA-samples was quantified using a Versamax microplate reader (Molecular Devices).
Formulation. Test compounds were prepared for application in either 1% Tween 80, 9% PEG400 in ultrapure water (Biowest) (i.v., i.p., p.o. application) or 5 mM citric acid in 0.9% saline (Braun) (subcutaneous application). If compounds were administered subcutaneously, injections were carried out into the neck crease.
Collection of Samples. Mice were bled from the tail vein at various timepoints. Heparin (Sigma) or K2-EDTA (Sigma) was added to blood samples to a final […] concentration of 10-15 Unit or 5 mM. Plasma was generated by centrifugation at 6800xg for 8 min at 4°C and stored at -80°C until analyzed by ELISA or CBA. Animals were sacrificed after the indicated time points by CO2 inhalation. Heart blood and organs for compound quantification by HPLC-MS/MS were collected post mortem and stored at –20°C until extracted as described above.
Compound concentration in (A) peripheral blood collected via tail bleeding before, 15, 30 60, 120, 240, 360 and 480 min after s.c. compound application and (B) organs collected after 8 h was assessed via HPLC-MS/MS. (A, B) Data are presented as mean ± SD. (C) Levels of TNFα and IFNα as well as (D) IL6, CXCL1, CCL2, IFNβ, IFNγ and IL10 in tail plasma over time were determined via cytometric bead array. Area under the curve (AUC) of each cytokine was plotted against compound concentration. Data are represented as mean ± 95% confidence interval.

Experiment [2] concerns the target T1, human TLR8 (Homo sapiens, UniProt Q9NR97).
T1 construct: host or cells: HEK blue hTLR8 reporter cells
T1 sequence (Q9NR97 27-1041): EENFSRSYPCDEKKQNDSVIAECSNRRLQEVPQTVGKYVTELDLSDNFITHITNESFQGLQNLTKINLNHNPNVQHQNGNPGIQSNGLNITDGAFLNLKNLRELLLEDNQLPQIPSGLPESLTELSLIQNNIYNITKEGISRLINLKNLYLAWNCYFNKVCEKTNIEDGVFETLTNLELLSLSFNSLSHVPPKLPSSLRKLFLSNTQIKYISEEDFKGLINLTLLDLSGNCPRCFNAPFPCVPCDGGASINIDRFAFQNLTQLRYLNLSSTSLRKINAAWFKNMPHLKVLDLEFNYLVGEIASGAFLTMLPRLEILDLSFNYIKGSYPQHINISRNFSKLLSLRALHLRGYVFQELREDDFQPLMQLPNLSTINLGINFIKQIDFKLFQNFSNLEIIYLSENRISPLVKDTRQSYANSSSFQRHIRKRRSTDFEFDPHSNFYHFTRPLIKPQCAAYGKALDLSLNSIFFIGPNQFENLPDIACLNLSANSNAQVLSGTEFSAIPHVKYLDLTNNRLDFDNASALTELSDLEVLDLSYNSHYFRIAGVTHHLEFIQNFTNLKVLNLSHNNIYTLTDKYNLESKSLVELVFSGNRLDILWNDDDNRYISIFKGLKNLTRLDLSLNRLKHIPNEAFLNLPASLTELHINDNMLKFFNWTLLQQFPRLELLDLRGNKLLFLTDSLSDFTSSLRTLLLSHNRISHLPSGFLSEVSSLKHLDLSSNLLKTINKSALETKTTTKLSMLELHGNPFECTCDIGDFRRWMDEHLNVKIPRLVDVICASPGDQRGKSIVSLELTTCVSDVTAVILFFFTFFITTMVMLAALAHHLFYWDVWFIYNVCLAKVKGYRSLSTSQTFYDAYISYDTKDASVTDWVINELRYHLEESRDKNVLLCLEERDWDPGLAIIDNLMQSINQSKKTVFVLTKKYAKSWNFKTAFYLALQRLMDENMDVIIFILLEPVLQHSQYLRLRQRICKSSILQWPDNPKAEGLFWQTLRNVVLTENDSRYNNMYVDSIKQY
The experiment can be described thus: HEK-Blue hTLR8 SEAP reporter assay. Type of experiment: cell-based. The note with it: for TLR8 activity rel. to assay max: average maximal SEAP secretion relative to maximum secretion observed in the assay; for SEAP secretion from HEK-Blue hTLR-8: in words. Here is the method:
HEK blue hTLR7 or hTLR8 reporter cells (Invivogen) were cultivated in DMEM High Glucose (Biowest) according to the manufacturer’s instructions. Cells were treated with test compounds and controls at various concentrations in serum-free DMEM and incubated at 37°C, 5% CO2 for 24 h before supernatants were collected.
Relative secreted embryonic alkaline phosphatase (SEAP) activity in the supernatants was determined by quantification of para-Nitrophenyl Phosphate (pNPP)-turnover. Supernatants were diluted 10-fold in a solution containing 1 mM MgCl2, 1 M diethanolamine and 1 mg/mL pNPP and incubated at RT for 15 min before the reaction was stopped by the addition of 0.25 volumes of 1 M NaOH. Absorbance was measured at 405 nm on a Versamax microplate reader (Molecular Devices) and normalized to the mean of >5 solvent controls.
To obtain reliable estimates, replicate measurements of a minimum of 2 experiments were normalized to the maximal SEAP activity of a compound in a given experiment and pooled before fitting a non-linear function to the data.
(In general: Reporter assays use an easily measured gene product as a stand-in for the process of interest.)

As for `CCCCc1nc2c(N)nc3ccccc3c2n1CCC1CCNCC1` [A1], in experiment [1] (1 µmol/kg s.c.), the “IFNα AUC” value amounted to 70000 pg·min/mL, the “TNFα AUC” value is 9700 pg·min/mL and the “INFα AUC / TNFα AUC” value is on record as 7. For the same compound, in experiment [1] (3 µmol/kg s.c.), the “IFNα AUC” value turned out to be 490000 pg·min/mL, the “TNFα AUC” value was 11000 pg·min/mL and the “INFα AUC / TNFα AUC” value is listed as 44. In addition, in experiment [1] (6 µmol/kg s.c.), the “IFNα AUC” value was 1.1e+06 pg·min/mL, the “TNFα AUC” value came to 20000 pg·min/mL and the “INFα AUC / TNFα AUC” value is 58. In experiment [1] (12 µmol/kg s.c.), the “IFNα AUC” value came out at 1.9e+06 pg·min/mL, the “TNFα AUC” value came out at 44000 pg·min/mL and the “INFα AUC / TNFα AUC” value came to 44. In experiment [1], the “dose ratio, times the molar dose of RSQ leading to comparable amounts of IFNα” value is 6-10 times and the “dose ratio, times the molar dose of RSQ necessary to induce similar levels of TNFα” value is 30-40 times. For the same compound, in experiment [2], the “TLR8 activity rel. to assay max” value was 11% ± 8% and the “SEAP secretion from HEK-Blue hTLR-8” value is “close to baseline”.
Consider `CCCCc1nc2c(N)nc3ccccc3c2n1CC1CCN(C(=O)CN(C)CC(=O)N(C)[C@H]2C[C@@H](C)O[C@@H](O[C@@H]3[C@@H](C)[C@H](O[C@H]4C[C@@](C)(OC)[C@@H](O)[C@H](C)O4)[C@@H](C)C(=O)O[C@H](CC)[C@@](C)(O)[C@H](O)[C@@H](C)N(C)C[C@H](C)C[C@@]3(C)O)[C@@H]2O)CC1` [A2-mac], for which, in experiment [2], the “TLR8 activity rel. to assay max” value is 4% ± 1% and the “SEAP secretion from HEK-Blue hTLR-8” value is on record as “close to baseline”.
On to `CCCCc1nc2c(N)nc3ccccc3c2n1CCC1CCN(C(=O)CN(C)CC(=O)N(C)C2CC(C)OC(OC3C(C)C(OC4CC(C)(OC)C(O)C(C)O4)C(C)C(=O)OC(CC)C(C)(O)C(O)C(C)N(C)CC(C)CC3(C)O)C2O)CC1` (stereo not shown) [A1-mac], for which, in experiment [1] (1 µmol/kg s.c.), the “IFNα AUC” value is 33000 pg·min/mL, the “TNFα AUC” value worked out at 7200 pg·min/mL and the “INFα AUC / TNFα AUC” value is on record as 5. Moreover, in experiment [1] (3 µmol/kg s.c.), the “IFNα AUC” value was 300000 pg·min/mL, the “TNFα AUC” value came out at 14000 pg·min/mL and the “INFα AUC / TNFα AUC” value is given as 22. Besides, in experiment [1] (6 µmol/kg s.c.), the “IFNα AUC” value was 1.6e+06 pg·min/mL, the “TNFα AUC” value was 38000 pg·min/mL and the “INFα AUC / TNFα AUC” value amounted to 42. Further, in experiment [1] (12 µmol/kg s.c.), the “IFNα AUC” value was found to be 1.9e+06 pg·min/mL, the “TNFα AUC” value amounted to 65000 pg·min/mL and the “INFα AUC / TNFα AUC” value was 30. In experiment [1], the “dose ratio, times the molar dose of RSQ leading to comparable amounts of IFNα” value is reported as 6-10 times and the “dose ratio, times the molar dose of RSQ necessary to induce similar levels of TNFα” value is on record as 30-40 times. Moreover, in experiment [2], the “TLR8 activity rel. to assay max” value is recorded as 5% ± 3% and the “SEAP secretion from HEK-Blue hTLR-8” value is recorded as “close to baseline”.
On to `CCOCc1nc2c(N)nc3ccccc3c2n1CC(C)(C)O` [RSQ, Resiquimod, reference compound], for which the “IFNα AUC” value in experiment [1] (0.1 µmol/kg s.c.) amounted to 110000 pg·min/mL; in experiment [1] (0.3 µmol/kg s.c.) it was 560000 pg·min/mL; in experiment [1] (1 µmol/kg s.c.) it was 1.1e+06 pg·min/mL; in experiment [1] (3 µmol/kg s.c.), 970000 pg·min/mL. For the same compound, the “TNFα AUC” value came out at 17000 pg·min/mL in experiment [1] (0.1 µmol/kg s.c.), 50000 pg·min/mL in experiment [1] (0.3 µmol/kg s.c.), 120000 pg·min/mL in experiment [1] (1 µmol/kg s.c.) and 150000 pg·min/mL in experiment [1] (3 µmol/kg s.c.). The “TLR8 activity rel. to assay max” value in experiment [2] was 96% ± 4%.
